Read-outs that look alike come from different tables or passages of the source. Blank lines part the entries; values can stand above or below the molecule they belong to.
Columns and labels:
[1] = target: CRF1 receptor; conditions: read-out: Ki for the CRF1 receptor, previously reported, cited from earlier work
[2] = target: T1, human CRF1 receptor (Homo sapiens, UniProt P34998); format: binding; conditions: for fold increase in binding affinity at CRF1 relative to 21: compared to compound 21; for fold loss of binding affinity at CRF1 relative to 2: compared to compound 2; for fold gain in binding affinity at CRF1 relative to 17: compared to compound 17
T1 sequence (P34998 24-415): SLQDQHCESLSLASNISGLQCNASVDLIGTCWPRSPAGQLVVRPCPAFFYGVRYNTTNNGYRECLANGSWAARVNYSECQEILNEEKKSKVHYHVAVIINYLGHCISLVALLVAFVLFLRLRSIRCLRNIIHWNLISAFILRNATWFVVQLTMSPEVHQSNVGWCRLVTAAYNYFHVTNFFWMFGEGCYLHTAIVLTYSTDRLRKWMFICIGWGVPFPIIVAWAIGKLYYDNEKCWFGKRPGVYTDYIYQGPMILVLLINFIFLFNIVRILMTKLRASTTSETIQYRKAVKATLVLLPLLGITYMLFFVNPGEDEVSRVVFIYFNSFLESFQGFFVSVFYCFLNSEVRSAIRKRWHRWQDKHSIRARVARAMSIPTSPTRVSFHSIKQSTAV

[3] = target: rat brain CRF1 receptor; conditions: read-out: IC50, rat brain CRF1 receptor; previous report; cited from earlier work

Structure (SMILES): CCCN(CCC)c1cc(C)nc2c(-c3cnc(N(C)C)cc3C)c(C)nn12 [Compound R121919]
- Ki ([1]; ref 26): 3.5 nM
- Ki ([1]; ref 27): 3 ± 0.16 nM

Structure (SMILES): CCCCN(CC)c1cc(C)nc2c1NC(=O)CN2c1ccc(C(C)C)cc1Br [Compound 2]
- IC50 [3]: 0.7 nM

Structure (SMILES): CCCCN(CC)c1cc(C)nc2c1NC(=O)CN2c1ccc(Cl)cc1Cl [Compound 6]
- IC50 [3]: 0.49 nM

Structure (SMILES): Cc1cc(N(C)C)c2c(n1)N(c1ccc(C(C)C)cc1Br)CC(=O)N2 [Compound 17]
- fold loss of binding affinity at CRF1 relative to 2 [2]: ~ 75 fold

Structure (SMILES): CCCCN(CC)c1cc(C)nc2c1NC(=O)CN2c1ccc(OC)cc1C [Compound 9]
- IC50 [3]: 0.92 nM

The next lines start with the values.

- fold increase in binding affinity at CRF1 relative to 21 [2]: ~ 8 fold
Structure (SMILES): CCN(CC)c1cc(C)nc2c1N(CCF)C(=O)CN2c1ccc(C(C)C)cc1Br [Compound 22]

- fold increase in binding affinity at CRF1 relative to 21 [2]: ~ 4 fold
Structure (SMILES): Cc1cc(N(C)C)c2c(n1)N(c1ccc(C(C)C)cc1Br)CC(=O)N2C/C=C/CF [Compound 23]

- fold loss of binding affinity at CRF1 relative to 2 [2]: ~ 6.8 fold
- fold gain in binding affinity at CRF1 relative to 17 [2]: ~ 11 fold
Structure (SMILES): CCN(C)c1cc(C)nc2c1NC(=O)CN2c1ccc(C(C)C)cc1Br [Compound 18]

- fold increase in binding affinity at CRF1 relative to 21 [2]: ~ 2.7 fold
Structure (SMILES): Cc1cc(N(C)C)c2c(n1)N(c1ccc(C(C)C)cc1Br)CC(=O)N2CCCCF [Compound 24]

- fold gain in binding affinity at CRF1 relative to 17 [2]: ~ 3 fold
Structure (SMILES): Cc1cc(N(C)C)c2c(n1)N(c1ccc(C(C)C)cc1Br)CC(=O)N2CCF [Compound 21]
